Series [1] addresses T1, apoaequorin (Aequorea victoria, UniProt P07164).
T1 construct: purchased Chisso Corporation
The experiment in a line: Luminescence patterns of semi-synthetic aequorins, half decay time. It is filed as biochemical. To be noted: for Half decay time: semi-synthetic aequorin, time in which luminescence becomes half of maximum, patterns measured for 60 seconds. The procedure: A solution of the regenerated semi-synthetic aequorin was diluted to 10-fold with 20 mM Tris-HCl (pH 7.6) containing 0.1% BSA (manufactured by Sigma, Inc.), 0.01 mM EDTA and 150 mM NaCl. The dilution was dispensed into a 96-well microplate (Nunc #236108) at 5 μl/well. The luminescence reaction was triggered by injecting 50 mM Tris-HCl (pH 7.6) containing 50 mM calcium chloride solution at 100 μl/well. The luminescence patterns for 60 seconds were measured to determine half decay time of the luminescence (a time period in which the luminescence becomes half of the maximum luminescence intensity).

For series [2], the target named is T1, apoaequorin. The experiment in a line: Luminescence spectra of semi-synthetic aequorins. It is filed as biochemical. To be noted: semi-synthetic aequorin, calcium added, 22 to 25° C. The procedure: In a quartz cell with light path length of 10 mm, 1 ml of 50 mM Tris-HCl (pH 7.6) containing 1 mM EDTA and 100 μl (100 μg protein) of a solution of the regenerated semi-synthetic aequorin were charged. Next, 100 μl of 50 mM Tris-HCl (pH 7.6) containing 0.1 ml of 10 mM calcium chloride solution was added thereto to start the luminescence reaction. The spectra were measured on a spectrofluorimeter (FP-6500, manufactured by Jasco Co., Ltd.) with the excitation light source turned off. The measurement conditions were bandwidth: 20 nm, response: 0.5 second, scan speed: 2000 nm/min and 22 to 25° C. The luminescence spectra measured were corrected.

The target in series [3] is T1, apoaequorin. Put plainly: Fluorescence spectra of fluorescent proteins formed from semi-synthetic aequorins by Ca2+. The conditions noted are these: for Maximum fluorescence wavelength λmax (nm) / Relative fluorescence intensity (rlu): fluorescent protein generated by calcium from semi-synthetic aequorin, excitation 330 nm, 25° C.; for fluorescence spectra of fluorescent proteins versus emission spectra of semi-synthetic aequorins, in words: same coelenterazine analogue. It is filed as physicochemical. How it is done: The fluorescence spectra of novel fluorescent proteins formed by the Ca^2+-triggerd reaction from semi-synthetic aequorins in EXAMPLE 3 were measured at 25° C. in a quartz cell (10 mm light path length) using a Jasco FP-6500 spectrofluorometer (excitation wavelength: 330 nm, emission/excitation bandwidth: 3 nm; response: 0.5 sec, scan speed, 1000 nm/min). The fluorescence spectra measured were corrected.

Series [4] concerns the target T2, 19 kDa protein from Oplophorus luciferase (Oplophorus gracilirostris, UniProt Q9GV45).
T2 construct: made in house
Put plainly: Substrate specificity and luminescence activity of the 19 kDa protein from Oplophorus luciferase. It is filed as biochemical. The conditions noted are these: measured for 60 seconds, coelenterazine = 100. The procedure: The 19 kDa protein from Oplophorus luciferase was purified by the method described in Inouye, S. and Sasaki, S., Protein Express. Purif. (2007) 56: 261-268 and provided for use.
After 1 μl of the 19 kDa protein (2.3 mg/ml) from Oplophorus luciferase containing 1 mM DTT was dissolved in 100 μl of 30 mM Tris-HCl (pH 7.6) containing 10 mM EDTA, 1 μl of a solution of coelenterazine or its analogue (1 μg/μl) in ethanol was added to the solution to start the luminescence reaction, and the luminescence activity was measured for 60 seconds on a luminometer luminescencer-PSN AB2200 (manufactured by Atto Co., Ltd.). The luminescence activity was determined by repeating the measurement described above 3 times and expressed in terms of the maximum luminescence intensity (Imax) of luminescence activity.

The next series relates to Gaussia luciferase. The experiment in a line: Substrate specificity and luminescence activity of Gaussia luciferase. It is filed as biochemical. The conditions noted are these: measured for 10 seconds, coelenterazine = 100. How it is done:
Gaussia luciferase was purified by the method described in Japanese Patent Application KOKAI No. 2008-099669 and provided for use. After 1 μl of Gaussia luciferase (0.024 mg/ml) was dissolved in 100 μl of phosphate buffered saline (manufactured by Sigma Inc.) containing 0.01% Tween 20 (manufactured by Sigma Inc.) and 10 mM EDTA, 1 μl of a solution of coelenterazine or its analogue (1 μg/μl) in ethanol was mixed with the solution to start the luminescence reaction. The luminescence activity was measured for 10 seconds on a luminometer luminescencer-PSN AB2200 (manufactured by Atto Co., Ltd.). The luminescence activity was determined by repeating the measurement described above 3 times and expressed in terms of the maximum luminescence intensity (Imax) of luminescence activity.

The target in a further series is T3, Renilla luciferase (Renilla reniformis, UniProt P27652).
T3 construct: made in house
T3 sequence (P27652 1-311): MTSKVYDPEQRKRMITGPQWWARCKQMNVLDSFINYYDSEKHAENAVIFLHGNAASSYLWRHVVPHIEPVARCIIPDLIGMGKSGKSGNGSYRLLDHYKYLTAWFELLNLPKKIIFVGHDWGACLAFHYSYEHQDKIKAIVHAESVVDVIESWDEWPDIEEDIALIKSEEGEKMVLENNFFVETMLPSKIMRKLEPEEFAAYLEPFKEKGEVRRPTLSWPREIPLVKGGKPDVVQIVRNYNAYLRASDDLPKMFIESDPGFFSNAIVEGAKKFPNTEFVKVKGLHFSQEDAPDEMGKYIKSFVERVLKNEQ
Put plainly: Substrate specificity and luminescence activity of Renilla luciferase. To be noted: measured for 10 seconds, coelenterazine = 100. It is filed as biochemical. The procedure:
Renilla luciferase was purified by the method described in Inouye, S. & Shimomura, O. Biochem. Biophys. Res. Commun. (1997) 233: 349-353, and used for assay.
After 1 μl of Renilla luciferase (0.45 mg/ml) was dissolved in 100 μl of 30 mM Tris-HCl (pH 7.6) containing 10 mM EDTA, 1 μl of a solution of coelenterazine or its analogue (1 μg/μl) in ethanol was added to the solution to start the luminescence reaction. The luminescence activity was measured for 10 seconds on a luminometer luminescencer-PSN AB2200 (manufactured by Atto Co., Ltd.). The luminescence activity was determined by repeating the measurement of luminescence activity described above 3 times and expressed in terms of the maximum luminescence intensity (Imax) of luminescence activity.

The target in series [5] is T1, apoaequorin. The experiment in a line: Calcium standard curve with semi-synthetic aequorins. It is filed as biochemical. The conditions noted are these: FIG. 3; Imax versus calcium concentration. The procedure:
In 9 ml of 50 mM Tris-HCl (pH 7.6), 1 ml of 1 g/L calcium carbonate standard solution (manufactured by Wako Pure Chemicals) was diluted to prepare 10^−3 M calcium carbonate solution. One milliliter of the resulting 10^−3 M calcium carbonate solution was taken and added to 9 ml of 50 mM Tris-HCl (pH 7.6) to prepare 10^−4 M calcium carbonate solution. Next, 3 ml of the resulting 10^−4 M calcium carbonate solution was taken and added to 6 ml of 50 mM Tris-HCl (pH 7.6) to prepare […] calcium carbonate solution. One milliliter from the 10^−4 M calcium carbonate solution obtained was added to 9 ml of 50 mM Tris-HCl (pH 7.6) to prepare 10^−5 M calcium carbonate solution. Then, 3 ml of the resulting 10^−5 M calcium carbonate solution was taken and added to 6 ml of 50 mM Tris-HCl (pH 7.6) to prepare 3×10^−5 M calcium carbonate solution. A dilution series was prepared by successively repeating the procedures described above to give the 10^−3 M to 10^−8 M calcium standard solutions.
In 5 ml of 50 mM Tris-HCl (pH 7.6) containing 10 mM DTT and 30 mM EDTA, 5 mg of recombinant apoaequorin (manufactured by Chisso Corporation) was dissolved and 100 μg of coelenterazine analogue dissolved in ethanol in an amount of 1.2-fold equivalent was added to the solution. The mixture was allowed to stand at 4° C. overnight to convert into semi-synthetic aequorin. The resulting semi-synthetic aequorin was concentrated using Amicon Ultra-4 (manufactured by Millipore, Inc., molecular weight cut-off: 10,000) to remove an excessive of coelenterazine analogue. The mixture was then washed 3 times with 3 ml of 30 mM Tris-HCl (pH 7.6) containing 0.05 mM EDTA to give the solution of semi-synthetic aequorin containing 0.05 mM EDTA. This semi-synthetic aequorin solution (2.5 mg/ml) was diluted with 20 mM Tris-HCl (pH 7.6) containing 0.1% BSA (manufactured by Sigma), 0.01 mM EDTA and 150 mM NaCl.
The calcium standard solution prepared as above was dispensed into a 96-well microplate (Nunc #236108) at 50 μl/well and 10 μl of the diluted semi-synthetic aequorin solution was injected into 50 μl of various concentration of calcium standard solution. The luminescence intensity was measured for 60 seconds on a luminescence plate reader Centro LB960 (manufactured by Berthold) and expressed in terms of the maximum intensity (Imax) of luminescence. The luminescence intensity was measured on each semi-synthetic aequorin in the same procedures. Semi-synthetic aequorins for practically use were chosen by the maximum intensity (Imax) of luminescence and the calcium standard curve of semi-synthetic aequorin was prepared.

Data on four molecules can be found in patent publication US9056840B2, “Coelenterazine analogues and coelenteramide analogues” (JNC Corporation, priority 2010, dated 2015).

Molecules are shown by their SMILES. “Also recorded” adds a separate entry of the source.

T1 sequence (P07164 other isoform, or with tags, fused parts or gaps with the stated changes): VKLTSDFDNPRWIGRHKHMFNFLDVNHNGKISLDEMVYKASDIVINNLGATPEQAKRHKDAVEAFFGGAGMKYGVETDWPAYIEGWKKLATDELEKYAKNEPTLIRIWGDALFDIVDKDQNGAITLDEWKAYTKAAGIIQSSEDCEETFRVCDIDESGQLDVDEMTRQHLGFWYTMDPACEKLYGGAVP
T2 sequence (Q9GV45 28-196): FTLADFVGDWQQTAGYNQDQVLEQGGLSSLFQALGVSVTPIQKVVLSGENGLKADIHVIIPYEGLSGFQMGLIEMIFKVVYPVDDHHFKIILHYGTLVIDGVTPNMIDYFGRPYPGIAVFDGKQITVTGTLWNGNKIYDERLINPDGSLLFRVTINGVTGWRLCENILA

With `O=c1c(Cc2ccc(O)cc2)nc2c(-c3ccccc3)[nH]c(-c3ccc(O)cc3)cn1-2` [Compound 3a, 2-(4-Hydroxybenzyl)-6-(4-hydroxyphenyl)-8-phenylimidazo[1,2-a]pyrazin-3(7H)-one], at apoaequorin [1], the “half decay time of luminescence compared to coelenterazine (native aequorin), in words” value is “markedly prolonged; also recorded: longer half decay time” and the “Half decay time” value was found to be 15.7 s. Moreover, the “Maximum luminescence wavelength λmax (nm)” value at apoaequorin [2] came out at 494.0 nm. Also, at apoaequorin [3], the “Maximum fluorescence wavelength λmax (nm)” value stood at 501.5 nm; the “Relative fluorescence intensity (rlu)” value is recorded as 118.1 rlu; the “fluorescence spectra of fluorescent proteins versus emission spectra of semi-synthetic aequorins, in words” value was “different luminescence spectra and fluorescence spectra”. Further, the “Luminescence activity Imax (%)” value in series [4] was 0.4%. Further, in the series with Gaussia luciferase, the “Luminescence activity Imax (%)” value turned out to be 0.00%. Besides, the “Luminescence activity Imax (%)” value on Renilla luciferase worked out at 0.00%. Moreover, the “calcium standard curve with semi-synthetic aequorin, in words” value (shortened to “calcium standard curve”) on apoaequorin [5] is “calcium standard curve can be prepared”.
Regarding `O=c1c(Cc2ccc(O)cc2)nc2c(/C=C/c3ccccc3)[nH]c(-c3ccc(O)cc3)cn1-2` [Compound 3b], at apoaequorin [1], the “half decay time of luminescence compared to coelenterazine (native aequorin), in words” value was “longer half decay time” and the “Half decay time” value worked out at 0.96 s. The “Maximum luminescence wavelength λmax (nm)” value on apoaequorin [2] is listed as 447.0 nm. For the same molecule, on apoaequorin [3], the “Maximum fluorescence wavelength λmax (nm)” value is given as 580.0 nm; the “Relative fluorescence intensity (rlu)” value is 10.3 rlu; the “fluorescence spectra of fluorescent proteins versus emission spectra of semi-synthetic aequorins, in words” value is “markedly different; also recorded: different luminescence spectra and fluorescence spectra”. The “Luminescence activity Imax (%)” value in series [4] stood at 0.07%. The “Luminescence activity Imax (%)” value in the series with Gaussia luciferase came to 0.01%. The “Luminescence activity Imax (%)” value at Renilla luciferase is given as 0.00%. For the same molecule, the “calcium standard curve” value at apoaequorin [5] was “calcium standard curve can be prepared”.
For the molecule `O=c1c(Cc2ccc(O)cc2)nc2c(-c3cccc4ccccc34)[nH]c(-c3ccc(O)cc3)cn1-2` [Compound 3d, 2-(4-Hydroxybenzyl)-6-(4-hydroxyphenyl)-8-(naphthalen-1-yl)imidazo[1,2-a]pyrazin-3(7H)-one], on apoaequorin [1], the “half decay time of luminescence compared to coelenterazine (native aequorin), in words” value was “longer half decay time” and the “Half decay time” value came to 1.10 s. For the same molecule, at apoaequorin [2], the “Maximum luminescence wavelength λmax (nm)” value is given as 480.0 nm. Moreover, at apoaequorin [3], the “Maximum fluorescence wavelength λmax (nm)” value is recorded as 482.5 nm and the “Relative fluorescence intensity (rlu)” value is 61.8 rlu. Besides, the “Luminescence activity Imax (%)” value in series [4] turned out to be 0.3%. For the same molecule, the “Luminescence activity Imax (%)” value with Gaussia luciferase came out at 0.00%. The “Luminescence activity Imax (%)” value on Renilla luciferase was found to be 0.00%. In addition, the “calcium standard curve” value at apoaequorin [5] is “calcium standard curve can be prepared”.
With `O=c1c(Cc2ccc(O)cc2)nc2c(-c3ccc4ccccc4c3)[nH]c(-c3ccc(O)cc3)cn1-2` [Compound 3e, 2-(4-Hydroxybenzyl)-6-(4-hydroxyphenyl)-8-(naphthalen-2-yl)imidazo[1,2-a]pyrazin-3(7H)-one], on apoaequorin [1], the “half decay time of luminescence compared to coelenterazine (native aequorin), in words” value is “markedly prolonged; also recorded: longer half decay time” and the “Half decay time” value amounted to 3.42 s. Besides, the “Maximum luminescence wavelength λmax (nm)” value at apoaequorin [2] is 507.0 nm. Besides, on apoaequorin [3], the “Maximum fluorescence wavelength λmax (nm)” value was 468.5 nm; the “Relative fluorescence intensity (rlu)” value stood at 28.0 rlu; the “fluorescence spectra of fluorescent proteins versus emission spectra of semi-synthetic aequorins, in words” value was “markedly different; also recorded: different luminescence spectra and fluorescence spectra”. For the same molecule, the “Luminescence activity Imax (%)” value in series [4] is reported as 0.07%. Besides, the “Luminescence activity Imax (%)” value with Gaussia luciferase is given as 0.00%. Further, at Renilla luciferase, the “Luminescence activity Imax (%)” value is listed as 0.00%. Moreover, the “calcium standard curve” value at apoaequorin [5] is “calcium standard curve can be prepared”.
